Literature values as cited in PMC9494641 (ACS Omega, 2022).

Assays:
JAK2 = JAK2 (Homo sapiens, UniProt O60674); details: read-out: Kd JAK2
JAK1 = details: read-out: IC50 JAK1
[1] = test system: JAK2 expressing SET-2 cell line

Sequence of JAK2 (O60674 808-1132 limits assumed): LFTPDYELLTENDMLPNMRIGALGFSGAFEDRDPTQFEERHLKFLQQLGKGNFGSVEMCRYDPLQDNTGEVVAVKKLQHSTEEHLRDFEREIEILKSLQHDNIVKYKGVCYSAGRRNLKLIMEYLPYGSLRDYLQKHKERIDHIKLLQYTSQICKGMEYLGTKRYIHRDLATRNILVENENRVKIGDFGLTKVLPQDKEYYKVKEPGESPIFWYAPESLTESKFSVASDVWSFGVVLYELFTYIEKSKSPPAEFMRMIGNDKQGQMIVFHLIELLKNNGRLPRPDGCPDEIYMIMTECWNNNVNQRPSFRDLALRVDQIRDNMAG

In the case of CCN(CC)CCC(CNc1ccnc2cc(Cl)ccc12)c1ccc(O)cc1 (stereo not drawn) [NSC13626], the Kd (JAK2) is given as 6.6 µM.
For Cc1cc(Nc2nc(N[C@@H](C)c3ccc(F)cc3)c(C#N)cc2F)[nH]n1 [AZ960], the IC50 [1] is given as less than 3 nM.
